From the METLIN SMRT retention time set (Domingo-Almenara et al. 2019)

assay: gradient 5% acetonitrile 3 min, to 50% in 2 min, to 85% in 15 min, held 3 min, 100 µL/min; conditions: column: Zorbax Extend-C18 2.1 x 50 mm; eluents: water / acetonitrile, 0.1% formic acid
Summary of the method: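 Retention times come from adduct peaks that were picked computationally and then checked by hand. The standards, pure and pooled in mixtures of ~100 molecules, were run on a Zorbax Extend-C18 column (2.1 × 50 mm, 1.8 μm) at 100 μL/min with water and acetonitrile, each with 0.1% formic acid. Detection was by quadrupole time-of-flight mass spectrometry in positive and negative ionization mode, with a dead volume of 40 μL and a dwell volume of 900 μL.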

Row | Compound | RP-LC retention time
1 | CC(Cc1ccco1)NC(=O)Cn1cccc1-c1nnc(-c2ccccc2)o1 (configuration not stated) | 898 s
2 | CC(C)NC(=O)C1CCN(c2nc3ccc(-c4cccnc4)nc3s2)CC1 | 605 s
3 | CS(=O)(=O)N1CC(n2cc(C(=O)NCC3CC3)nn2)C1 | 645 s
4 | CCOC(=O)c1[nH]c(C)c(C(=O)N(Cc2ccccc2)C(C)C)c1C | 860 s
5 | CCOc1nc(OCC)c2cnn(C)c2n1 | 901 s
6 | c1coc(-c2nnc(Nc3nc4cc5c(cc4s3)OCO5)o2)c1 | 694 s
7 | Cc1ccc2oc(C(=O)NCCc3cccs3)cc2n1 | 640 s
8 | COc1cccc(Nc2nc(C)c(C(=O)Nc3cc(F)cc(F)c3)s2)c1 | 1040 s
9 | O=S(=O)(c1ccc2c(c1)-c1oncc1CO2)N1CCN(c2ccccn2)CC1 | 647 s
10 | O=C(Cc1csc2nc(-c3ccccc3)cn12)NC1CCCc2ccccc21 (configuration not stated) | 851 s
11 | O=C(CSc1ccc(NC(=O)c2cccs2)nn1)Nc1nc2ccccc2s1 | 840 s
12 | CCC(=O)N(Cc1ccc(F)cc1)C(C)C(=O)c1c(C)c(C(=O)OC)n(C)c1C (configuration not stated) | 922 s
13 | Cc1ccc(OCc2ccc(-c3nc(C#N)c(NCCN(C)C)o3)o2)cc1 | 709 s
14 | CC(C)c1noc(-c2cc(=O)n(CC(=O)NCc3ccc(F)cc3)c3ccccc23)n1 | 951 s
15 | CCCn1ccc2sc(C)c(C(=O)N3CCN(c4ccccc4)CC3)c2c1=O | 849 s
16 | O[C@@H](c1cc(C(F)(F)F)nc2c(C(F)(F)F)cccc12)[C@@H]1CCCCN1 | 829 s
17 | Cc1cccc(Nc2c(-c3ccccc3)nc3ncccn23)c1C | 671 s
18 | COc1ccccc1/C=C/c1nc(-c2cccc(-c3ccnn3C)c2)no1 | 1200 s
19 | Cc1ccccc1CNC(=O)C1(C)Oc2cccnc2N(C)C1=O (configuration not stated) | 786 s
20 | Cc1nc(N2CCN(c3ccccn3)CC2)nc2c1C(=O)CC(C)(C)C2 | 677 s
21 | Cc1ccc(C)c(NS(=O)(=O)c2cc(-c3cc(C(F)(F)F)on3)sc2C)c1 | 1320 s
22 | Cn1nccc1C(=O)N1CCN(S(=O)(=O)c2ccc3c(c2)oc(=O)n3C)CC1 | 679 s
23 | Cc1sc(-c2nnc(C(=O)N3CCCCC3)o2)cc1S(=O)(=O)NC1CC1 | 824 s

Other lines, results leading:

Row | RP-LC retention time | Compound
24 | 917 s | Cn1cc(S(=O)(=O)N2CCCCC2)cc1C(=O)Nc1ccc2c(c1)OCCO2
25 | 778 s | CCCCNC(=O)CCC(=O)N1CCCn2nc(-c3cn(C)c4ccccc34)cc21
26 | 1330 s | COc1ccc(-c2nnc(-c3cccnc3NCCC3=CCCCC3)o2)cc1
27 | 724 s | COc1ncc(C(=O)Nc2ccc(F)cc2F)c(C)n1
28 | 1060 s | Cc1ccc(NC(=O)C2CCCN(S(=O)(=O)c3cc(-c4noc(C)n4)cs3)C2)c(Cl)c1 (configuration not stated)
29 | 712 s | COc1ccc(C(=O)N2C[C@@H]3C[C@H]2C[C@@H]3NC(=O)c2cccs2)cc1F
30 | 990 s | O=C(CCn1nnc2cc(-c3noc(COc4ccc(F)cc4)n3)ccc21)N1CCCCCC1
31 | 691 s | CCc1nnc2ccc(NC(=O)Nc3ccccc3C)cn12
32 | 1080 s | COc1ccc(CNC(=O)Cn2ccc3ccc(-c4nnc(C)o4)cc32)cc1
33 | 667 s | CCCNc1cc(N2CCCC(CCC(=O)Nc3ccc(OC)c(OC)c3)C2)ncn1 (configuration not stated)
34 | 934 s | Cc1cc(NC(=O)Cn2c(C)cc(-c3nnc(C4CCC4)o3)c2C)ccc1F
35 | 660 s | CCCc1nnc(-c2cccnc2N2CCN(C(=O)c3ccc4ncccc4c3)CC2)o1
36 | 869 s | CCc1nc(-c2csc(S(=O)(=O)N3CCCC(C(=O)Nc4cccc(C)n4)C3)c2)no1 (configuration not stated)
37 | 947 s | Cc1ccc(CNC(=O)Cn2c(C)cc(-c3nnc(C4CCC4)o3)c2C)cc1C
